The text below walks through data of patent US20250241901A1, “ACTIVATION OF MNRR1 / CHCHD2 AS A THERAPEUTIC TARGET FOR MITOCHONDRIA ASSOCIATED DISORDERS” (Wayne State University, priority 2024, published 2025).

Common to all, as to assay type: cell-based, human
In assay [1] the test system is MNRR1. In words: MNRR1 protein levels in MELAS cybrid cells (immunoblot). As to conditions: 10 μM; for MNRR1 protein levels: DW7 cells, 24 h. How it is done:
(§1) FIGS. 6A-6C: FIG. 6A: Above, Chemical structures of nitazoxanide, its metabolites, and similar compounds. Abbreviations: P4, Phenyl-4-aminosalicylic acid; 4ABA, 4-Aminobenzanilide; 4ASA, 4-Amino salicylic acid; BA, Benzanilide; PBO, Phenyl benzoate; PSA, Phenyl salicylic acid; 2AN, 2-Amino 5-nitrothiazole. Below, Equal amounts of lysates of MELAS cells treated with Vehicle (DMSO) or the various compounds (10 μM) for 24 h were separated on an SDS-PAGE gel and probed for MNRR1 levels. Actin was probed as a loading control and numbers below represent an average and SD of 3 biological replicates. FIGS. 6B-6C: MNRR1 transcript levels are shown relative to 18S rRNA (n=4 biological replicates, error bars represent SE). In all figures, * indicates p<0.05, ** indicates p<0.005.
FIGS. 11A-11F: RBPJk and HIF2α compete for binding at the ORE in the MNRR1 promoter to regulate transcription. FIG. 11A: Chromatin immunoprecipitation-qPCR assessing binding of HIF2α to the endogenous MNRR1 promoter in MELAS cybrid cells with 0% (CL9) and 70% heteroplasmy (DW7). FIG. 11B: Dual luciferase reporter assay showing relative activation of MNRR1-luciferase levels in MELAS cybrid cells overexpressing varying proportions of constitutively active RBPJk (RBP-CA) and HIF2α. FIG. 11C: Dual luciferase reporter assay showing relative activation of MNRR1-luciferase levels in MELAS cybrid cells overexpressing the WT (FIG. 9A) or ΔORE (positions 47-53 in SEQ ID NO: 25 in FIG. 9C) promoter with EV (dotted line) or HIF2α. FIG. 11D: Equal amounts of Control or HIFα knockdown (KD) MELAS cybrid cell lysates were separated on an SDS-PAGE gel and probed for HIF2α and MNRR1 levels. Tubulin was probed as loading control. FIG. 11E: Oxygen consumption measured from Control or HIFα knockdown (KD) MELAS cybrid cells. (n=4 biological replicates, error bars represent SE). FIG. 11F: Left, Oxygen consumption measured from MELAS cybrid cells treated with vehicle (DMSO) or PT2385 (10 μM), an inhibitor of HIF2α function, for 24 h. Right, Equal amounts of MELAS cybrid cell lysates treated with vehicle (DMSO) or PT2385 (10 μM) for 24 h, separated on an SDS-PAGE gel, and probed for MNRR1 levels. GAPDH was probed as a loading control.
Immunoblotting: Immunoblotting was performed as described previously. Cell lysates for immunoblotting were prepared using RIPA buffer (Abcam, Waltham, MA) and included a protease and phosphatase inhibitor cocktail (Sigma, St. Louis, MO). […] The clear supernatants were transferred to new tubes and quantified using the Bradford reagent with BSA as standard (BioRad, Hercules. CA). […] For detection after immunoblotting, the SuperSignal™ West Pico PLUS substrate (ThermoFisher, Waltham, MA) was used to generate chemiluminescence signal, which was detected with X-Ray film (RadTech, Vassar, MI).
Background: A western blot detects proteins with antibodies after separation by electrophoresis.

The subject of assay [2] is MNRR1 promoter. In words: Dual luciferase reporter assay with MNRR1 promoter deletions in MELAS cybrid cells. As to conditions: 10 μM, 24 h. How it is done: FIGS. 9A-9E: Nitazoxanide acts by reducing HIF2α levels in MELAS cells. FIG. 9A: Schematic representation of deleted regions of the MNRR1 promoter. FIG. 9B: Dual luciferase reporter assay using the MNRR1 promoter deletions in cells treated with vehicle (DMSO), nitazoxanide, or tizoxanide (10 μM) for 24 h (n=4 biological replicates). FIG. 9C: DNA sequence of region of 800-952 bp in the MNRR1 promoter (SEQ ID NO: 25) highlighting binding sites of the transcription factors shown. FIG. 9D: Transcript levels of HIF2α and HIF1α in MELAS cybrid cells harboring different levels of heteroplasmy (0% to 100%). Data from. FIG. 9E: Protein levels of HIF2α and HIF1α in cybrid cells with 0% (CL9) and 70% MELAS heteroplasmy (DW7) In all figures, * indicates p<0.05, ** indicates p<0.005.
Luciferase reporter assay: Luciferase assays were performed with the dual-luciferase reporter assay kit (Promega). Briefly, cells were lysed in 1× passive lysis buffer (Promega) and 25 μL of lysate was used for assay with a tube luminometer using an integration time of 10 s. Transfection efficiency was normalized with the co-transfected pRL-SV40 Renilla luciferase expression plasmid.
Background: In a reporter assay the amount or activity of a reporter protein is the signal.

Assay [3] relates to MNRR1. In words: MNRR1 transcript levels in MELAS cells (RT-PCR). As to conditions: relative to 18S rRNA. As for the experimental part:
as §1
Real-time polymerase chain reaction (RT-PCR): Total cellular RNA was extracted from MELAS cells with a RNeasy Plus Mini Kit (Qiagen) according to the manufacturer's instructions. Complementary DNA (cDNA) was generated by reverse transcriptase polymerase chain reaction (PCR) using the ProtoScript® II First Strand cDNA Synthesis Kit (New England Biolabs, Ipswich, MA). Transcript levels were measured by real time PCR using SYBR green on an ABI 7500 system. Real-time analysis was performed by the ΔΔ^Ct method. […]

As to `CC(=O)Oc1ccccc1C(=O)Nc1ncc([N+](=O)[O-])s1` [nitazoxanide, Nitazoxanide], the MNRR1 protein levels result in assay [1] is on record as “significant increase”. The “activation of MNRR1 promoter with deletion of the 801-952 region” value in assay [2] is “failed to display activation”. Besides, the MNRR1 transcription result in assay [3] is given as “induced its transcription”.

For `O=C(Nc1ncc([N+](=O)[O-])s1)c1ccccc1O` [tizoxanide, Tizoxanide], the MNRR1 protein levels entry in assay [1] is on record as “significant increase”. The MNRR1 levels result in assay [1] (MELAS cybrid cells, 48 h) is listed as “increases MNRR1 levels”. For the same molecule, in assay [2], the “activation of MNRR1 promoter with deletion of the 801-952 region” value is reported as “failed to display activation”. Moreover, in assay [3], the MNRR1 transcription entry is recorded as “induced its transcription”.
